Results from ChEMBL document CHEMBL3046719, “Photooxygenation of Nimonol, a Tetranortriterpenoid from Azadirachta indica. A. Juss” (2002).

Key:
Format in all cases: functional
Spodoptera litura [1] = assay: Antifeedant activity against Spodoptera litura at 1 ug
Spodoptera litura [2] = assay: Antifeedant activity against Spodoptera litura at 0.5 ug
Spodoptera litura [3] = assay: Antifeedant activity against Spodoptera litura at 5 ug

Row | Compound | Activity (Spodoptera litura [1]) [%] | Activity (Spodoptera litura [2]) [%] | Activity (Spodoptera litura [3]) [%]
1 | C/C=C(\C)C(=O)O[C@H]1C[C@@H](OC(C)=O)[C@@]2(C(=O)OC)CO[C@H]3[C@@H](O)[C@@](C)([C@]45O[C@@]4(C)[C@@H]4C[C@H]5O[C@@H]5OC=C[C@@]54O)[C@H]4[C@]1(CO[C@]4(O)C(=O)OC)[C@@H]32 [AZADIRACHTIN A] | 85.5 | 83.3 | 100
2 | CC(=O)O[C@@H]1[C@H](O)[C@H]2C(C)(C)C(=O)C=C[C@]2(C)[C@H]2CC[C@@]3(C)[C@H](C45CC(O)OC4O5)C[C@@H]4O[C@@]43[C@]12C (some centres not stated) [NIMONOL PP2] | 68.7 | 55.3 | 73.5
3 | CC(=O)O[C@@H]1[C@H](O)[C@H]2C(C)(C)C(=O)C=C[C@]2(C)[C@H]2CC[C@@]3(C)[C@H](C4=CC(O)OC4=O)C[C@@H]4O[C@@]43[C@]12C (some centres not stated) [NIMONOLIDE] | 80.2 | 67.5 | 82.5
4 | CC(=O)O[C@@H]1[C@H](O)[C@H]2C(C)(C)C(=O)C=C[C@]2(C)[C@H]2CC[C@]3(C)C(=CC[C@H]3c3ccoc3)[C@]12C [NIMONOL] | 55.7 | 32.5 | 32.2
